According to patent US5563121A, “Peptide linkage unit” (priority 1994, dated 1996):
*1 amine or outer side, *2 acyl side, *3 side chain or, on linkers, in order; H or OH if unused. Where a SMILES comes first, the peptide text is derived from it. [ ]: non-standard residue; d: D form. X1 = O=C([C@@H]1CCCN1CP(=O)(O)C(Cc1ccccc1)N[*:1])[*:2]

Molecular target: T1, Synthetic HIV-1 proteinase (Human immunodeficiency virus type 1 group M subtype B, UniProt P03369)
T1 construct: Synthetic HIV-1 proteinase; made in house; host or cells: chemical synthesis (no expression host); gift of Dr. Stephen Kent, The Scripps Research Institute
Experiment: HPLC assay of HIV-1 PR inhibition
Format: biochemical
Details: HIV substrate IV, pH 6.2, 25° C.
Procedure: Typical reactions were carried out at room temperature (25° C.) in 150 μl total volumes of 100 mM MES buffer, pH 6.2, containing 1 mM ethylenediaminetetra-acetic acid (EDTA) and 2 mM dithiothreitol (DTT) plus 0.1 percent (v/v) Triton X-100.
Synthetic HIV-1 proteinase [0.5 μg, obtained from Dr. Stephen Kent of The Scripps Research Institute; see Cell, 54:363-368 (July 29, 1988)] was first incubated in buffer with (or without) various concentrations of "inhibitor(s)" for 30 minutes at 25° C. The proteinase reaction was then initiated by the addition of HIV substrate IV (Bachem Bioscience Inc.) at fixed concentrations. HIV Substrate IV has the sequence
Lys-Ala-Arg-Val-Nle-p-NO2 Phe-Glu-Ala-Nle-NH2 (SEQ ID NO: 32).
At three appropriate times (normally 15, 30 and 45 minutes) the hydrolysis was stopped by adding a 40 μl aliquot from the reaction to 40 μl of a prepared quench solution. The quench solution was 1:4 acetonitrile:water (3 percent trifluoroacetic acid; TFA) and contained 150 μM m-toluic acid which served as an HPLC standard. […] Reaction progress was monitored by following the increasing absorbance (peak height) of the substrate IV cleavage product detected at […].

Work on `CC[C@H](C)[C@H](NC(=O)[C@@H]1CCCN1CP(=O)(O)C(Cc1ccccc1)NC(=O)[C@H](CC(N)=O)NC(=O)[C@H](CC(C)C)NC(=O)[C@H](CO)NC(C)=O)C(=O)N[C@H](C(=O)OC)C(C)C` (stereo partly drawn) [Compound 6, CH3 C(O)-Ser-Leu-Asn-Phe.psi.[PO2^- CH2 NH^+ ]Pro-Ile-Val-OCH3] (Ac-SLN[X1]IV-OMe) yielded a Ki (one stereoisomer of Compound 6) of roughly 600 µM and a Ki (the other (more active) isomer of Compound 6) of roughly 0.01 µM.
